Experimental data reported in US20220071932A1, “Compositions and Methods Against Stress-Induced Affective Disorders and Their Associated Symptoms” (The Trustees of Columbia University in the City of New York, priority 2019, published 2022).

Columns and labels:
129S6/SvEv mice [1] = test: Contextual fear conditioning (CFC), 3-shock; freezing; format: in vivo; conditions: for CFC Training, Average Freezing, p (Fisher's LSD): FIG. 8C; for p, Freezing (%), CFC Re-exposure 2, (R,S)-ketamine vs. FENM / p, Freezing (%), CFC Re-exposure 2, Saline vs. drug: drug 5 min after re-exposure 1; for p, Freezing (%), CFC Re-exposure 2, (R,S)-ketamine vs. FENM: (R,S)-ketamine 30 mg/kg vs. FENM 20 mg/kg
Protocol: A 3-shock CFC paradigm was administered as previously described (45, 46). CFC was conducted in chambers obtained from Med Associates (St. Albans, Vt.), with internal dimensions of approximately 20 cm wide×16 cm deep×20.5 cm high. The chambers had metal walls on each side, clear plastic front and back walls and ceilings, and stainless-steel bars on the floor. A house light (CM1820 bulb, 28v, 100 mA) mounted directly above the chamber provided illumination. Each chamber was located inside a larger, insulated, plastic cabinet that provided protection from outside light and noise. Each cabinet contained a ventilation fan that was operated during the sessions. A paper towel dabbed with lemon solution was placed underneath the chamber floor. Mice were held outside the experimental room in their home cages prior to testing and transported to the conditioning apparatus individually in standard mouse cages Chambers were cleaned with 70% EtOH between each set of mice. Mice were placed into the conditioning chamber and received shocks at 180 s, 240 s, and 300 s (2 s duration, 0.75 mA). Fifteen seconds after the last shock, mice were removed from the chamber. Overall, the training session lasted 317 s. […] All sessions were scored for freezing using FreezeFrame4.

129S6/SvEv mice [2] = test: Marble burying (MB); format: in vivo; conditions: for p, Fisher's PLSD Saline vs. drug, MB Marbles Buried (no.): drug 5 minutes after stress, FIG. 2K; for number of marbles buried: vs saline
Protocol: The MB assay was conducted in a clean cage (10.5 in×5.5 in) containing soft pliable Beta Chip bedding (Northeastern Products Corp, Warrensburg, N.Y.). The cage contained 16 marbles set up in 4 rows of 4 across. Mice were given 30 minutes to explore and bury. At the end of the assay, the percentage of marbles buried was calculated.

[3] = 5 min prior to CFC, (R,S)-ketamine 30 mg/kg, FENM 20 mg/kg, vs saline
[4] = (R,S)-ketamine (30 mg/kg) vs. FENM (20 mg/kg), FIG. 8D
[5] = (R,S)-ketamine (30 mg/kg) vs. FENM (20 mg/kg), FIG. 8F
[6] = Saline vs. FENM (20 mg/kg), FIG. 8D
[7] = Saline vs. FENM (20 mg/kg), FIG. 8F
[8] = dose (20), drug 5 minutes after stress, FIG. 2C

What does the source list for `NC12CC3CC(C1)CC(CCF)(C3)C2` [FENM, 1-amino-3-fluoroethyl-adamantane]?
fear expression during CFC re-exposure (129S6/SvEv mice [1]; 1 week prior to CFC, (R,S)-ketamine 30 mg/kg, FENM 20 and 30 mg/kg, vs saline): decreased fear expression; fear expression during re-exposure 2 (129S6/SvEv mice [1]; 5 min after context re-exposure 1 (24 h before re-exposure 2), (R,S)-ketamine 30 mg/kg, FENM 20 mg/kg, vs saline): significantly decreased fear expression; fear expression during CFC re-exposure 1 (129S6/SvEv mice [1]; [3]): but not FENM significantly decreased; fear expression during CFC re-exposure 2 (129S6/SvEv mice [1]; [3]): significantly increased fear expression; freezing during CFC training (129S6/SvEv mice [1]; [3]): but not FENM, increased freezing; CFC Training, Average Freezing, p (Fisher's LSD) (129S6/SvEv mice [1]; (R,S)-ketamine (30 mg/kg) vs. FENM (20 mg/kg)): 0.0029; CFC Re-exposure 1, Freezing Min 1 (%), p (Fisher's LSD) (129S6/SvEv mice [1]; [4]): <0.0001; CFC Re-exposure 1, Freezing Min 2 (%), p (Fisher's LSD) (129S6/SvEv mice [1]; [4]): <0.0001; CFC Re-exposure 1, Freezing Min 3 (%), p (Fisher's LSD) (129S6/SvEv mice [1]; [4]): <0.0001; CFC Re-exposure 1, Freezing Min 4 (%), p (Fisher's LSD) (129S6/SvEv mice [1]; [4]): <0.0001; CFC Re-exposure 1, Freezing Min 5 (%), p (Fisher's LSD) (129S6/SvEv mice [1]; [4]): <0.0001; CFC Re-exposure 2, Freezing Min 1 (%), p (Fisher's LSD) (129S6/SvEv mice [1]; [5]): 0.1684; CFC Re-exposure 2, Freezing Min 2 (%), p (Fisher's LSD) (129S6/SvEv mice [1]; [5]): <0.0001; CFC Re-exposure 2, Freezing Min 3 (%), p (Fisher's LSD) (129S6/SvEv mice [1]; [5]): <0.0001; CFC Re-exposure 2, Freezing Min 4 (%), p (Fisher's LSD) (129S6/SvEv mice [1]; [5]): <0.0001; CFC Re-exposure 2, Freezing Min 5 (%), p (Fisher's LSD) (129S6/SvEv mice [1]; [5]): <0.0001; CFC Re-exposure 1, Freezing (%), p (Fisher's LSD) (129S6/SvEv mice [1]; (R,S)-ketamine (30 mg/kg) vs. FENM (20 mg/kg), after ANOVA, FIG. 8E): <0.0001; CFC Re-exposure 2, Freezing (%), p (Fisher's LSD) (129S6/SvEv mice [1]; (R,S)-ketamine (30 mg/kg) vs. FENM (20 mg/kg), after ANOVA, FIG. 8G): <0.0001; CFC Re-exposure 1, Freezing (%), p (Fisher's LSD) (129S6/SvEv mice [1]; (R,S)-ketamine (30 mg/kg) vs. FENM (20 mg/kg), after RMANOVA, FIG. 8D): <0.0001; CFC Re-exposure 2, Freezing (%), p (Fisher's LSD) (129S6/SvEv mice [1]; (R,S)-ketamine (30 mg/kg) vs. FENM (20 mg/kg), after RMANOVA, FIG. 8F): <0.0001; CFC Training, Freezing, p (Fisher's LSD) (129S6/SvEv mice [1]; (R,S)-ketamine (30 mg/kg) vs. FENM (20 mg/kg), after RMANOVA, FIG. 8 cohort): 0.0029; Behavior: Fear (129S6/SvEv mice [1]; Extinction (5 min after re-exposure 1), dose 20 mg/kg): ↓; p, Freezing (%), CFC Re-exposure 2, (R,S)-ketamine vs. FENM (129S6/SvEv mice [1]; Fisher's LSD after ANOVA, FIG. 4G): 0.0248; p, Freezing (%), CFC Re-exposure 2, Saline vs. drug (129S6/SvEv mice [1]; Fisher's LSD after ANOVA, FENM 20 mg/kg, (R,S)-ketamine 30 mg/kg, FIG. 4G): 0.0281; p, Freezing (%), CFC Re-exposure 2, (R,S)-ketamine vs. FENM (129S6/SvEv mice [1]; Fisher's LSD after RMANOVA, FIG. 4F): 0.0248; p, Freezing (%), CFC Re-exposure 2, Saline vs. drug (129S6/SvEv mice [1]; Fisher's LSD after RMANOVA, FENM 20 mg/kg, ketamine 30 mg/kg, FIG. 4F): 0.0281; p, Freezing (%), CFC Training, Saline vs. drug (129S6/SvEv mice [1]; Fisher's LSD after RMANOVA, drug 5 min before CFC, (R,S)-ketamine 30 mg/kg, FENM dose lies beyond the rows shown, FIG. 8B): 0.9251; Behavior: Fear (129S6/SvEv mice [1]; Prophylactic (5 min before stress), dose 20 mg/kg): ↑; Behavior: Fear (129S6/SvEv mice [1]; Prophylactic (7 days before stress), dose 20 mg/kg): ↓; Behavior: Fear (129S6/SvEv mice [1]; Prophylactic (7 days before stress), dose 30 mg/kg): ↓; CFC Training, Average Freezing, p (Fisher's LSD) (129S6/SvEv mice [1]; Saline vs. FENM (20 mg/kg)): 0.9251; CFC Re-exposure 1, Freezing Min 1 (%), p (Fisher's LSD) (129S6/SvEv mice [1]; [6]): 0.0008; CFC Re-exposure 1, Freezing Min 2 (%), p (Fisher's LSD) (129S6/SvEv mice [1]; [6]): 0.0075; CFC Re-exposure 1, Freezing Min 3 (%), p (Fisher's LSD) (129S6/SvEv mice [1]; [6]): 0.1384; CFC Re-exposure 1, Freezing Min 4 (%), p (Fisher's LSD) (129S6/SvEv mice [1]; [6]): 0.7601; CFC Re-exposure 1, Freezing Min 5 (%), p (Fisher's LSD) (129S6/SvEv mice [1]; [6]): 0.4751; CFC Re-exposure 2, Freezing Min 1 (%), p (Fisher's LSD) (129S6/SvEv mice [1]; [7]): 0.5432; CFC Re-exposure 2, Freezing Min 2 (%), p (Fisher's LSD) (129S6/SvEv mice [1]; [7]): 0.0173; CFC Re-exposure 2, Freezing Min 3 (%), p (Fisher's LSD) (129S6/SvEv mice [1]; [7]): 0.0053; CFC Re-exposure 2, Freezing Min 4 (%), p (Fisher's LSD) (129S6/SvEv mice [1]; [7]): 0.3068; CFC Re-exposure 2, Freezing Min 5 (%), p (Fisher's LSD) (129S6/SvEv mice [1]; [7]): 0.3729; CFC Re-exposure 1, Freezing (%), p (Fisher's LSD) (129S6/SvEv mice [1]; Saline vs. FENM (20 mg/kg), after ANOVA, FIG. 8E): 0.0665; CFC Re-exposure 2, Freezing (%), p (Fisher's LSD) (129S6/SvEv mice [1]; Saline vs. FENM (20 mg/kg), after ANOVA, FIG. 8G): 0.0173; CFC Re-exposure 1, Freezing (%), p (Fisher's LSD) (129S6/SvEv mice [1]; Saline vs. FENM (20 mg/kg), after RMANOVA, FIG. 8D): 0.0665; CFC Re-exposure 2, Freezing (%), p (Fisher's LSD) (129S6/SvEv mice [1]; Saline vs. FENM (20 mg/kg), after RMANOVA, FIG. 8F): 0.0173; p, Fisher's PLSD Saline vs. drug, CFC Re-exposure Freezing Min 1 (%) (129S6/SvEv mice [1]; [8]): 0.1072; p, Fisher's PLSD Saline vs. drug, CFC Re-exposure Freezing Min 2 (%) (129S6/SvEv mice [1]; [8]): 0.0080; p, Fisher's PLSD Saline vs. drug, CFC Re-exposure Freezing Min 3 (%) (129S6/SvEv mice [1]; [8]): 0.1619; p, Fisher's PLSD Saline vs. drug, CFC Re-exposure Freezing Min 4 (%) (129S6/SvEv mice [1]; [8]): 0.5390; p, Fisher's PLSD Saline vs. drug, CFC Re-exposure Freezing Min 5 (%) (129S6/SvEv mice [1]; [8]): 0.8801; p, Fisher's PLSD Saline vs. drug, CFC Re-exposure Freezing (%) (129S6/SvEv mice [1]; dose (20), drug 5 minutes after stress, after RMANOVA, FIG. 2C): 0.1188; behavior during CFC training (129S6/SvEv mice [1]; one week prior to 3-shock CFC (c-fos / Western blot cohort), (R,S)-ketamine 30 mg/kg, FENM 20 mg/kg, vs saline): did not alter behavior; freezing upon re-exposure (129S6/SvEv mice [1]; one week prior to 3-shock CFC, re-exposed five days later, (R,S)-ketamine 30 mg/kg, FENM 20 mg/kg, vs saline): significantly reduced freezing; p, Fisher's PLSD Saline vs. drug, MB Marbles Buried (no.) (129S6/SvEv mice [2]; 10 mg/kg): 0.0737; p, Fisher's PLSD Saline vs. drug, MB Marbles Buried (no.) (129S6/SvEv mice [2]; 30 mg/kg): 0.0097; number of marbles buried (129S6/SvEv mice [2]; 5 minutes after CFC, re-exposure 5 days after training, FENM 20 and 30 mg/kg, (R,S)-ketamine 30 mg/kg): decreased the number of marbles buried; p, Fisher's PLSD Saline vs. drug, MB Marbles Buried (no.) (129S6/SvEv mice [2]; dose (20)): 0.0002; number of marbles buried (129S6/SvEv mice [2]; non-stressed mice, FENM 20 mg/kg 1 hour before the start of the OF): did not affect; p, Marbles Buried (no.), MB, Saline vs. FENM (129S6/SvEv mice [2]; t-test, Baseline, anxiety cohort, FENM 20 mg/kg, FIG. 7F): 0.4657
